Entries after “also recorded” stand apart in the source; their conditions may differ.
Assays:
[1] = molecular target: T1, HDAC6 (Homo sapiens, UniProt Q9UBN7); assay: in vitro enzyme inhibition assay (Fluor de Lys deacetylation) of HDAC1, 4 and 6; format: biochemical; parameters: endogenous in cells; host or cells: A549 cells; settings: in vitro enzyme inhibition (FIG. 13)
T1 sequence (Q9UBN7 1-1215): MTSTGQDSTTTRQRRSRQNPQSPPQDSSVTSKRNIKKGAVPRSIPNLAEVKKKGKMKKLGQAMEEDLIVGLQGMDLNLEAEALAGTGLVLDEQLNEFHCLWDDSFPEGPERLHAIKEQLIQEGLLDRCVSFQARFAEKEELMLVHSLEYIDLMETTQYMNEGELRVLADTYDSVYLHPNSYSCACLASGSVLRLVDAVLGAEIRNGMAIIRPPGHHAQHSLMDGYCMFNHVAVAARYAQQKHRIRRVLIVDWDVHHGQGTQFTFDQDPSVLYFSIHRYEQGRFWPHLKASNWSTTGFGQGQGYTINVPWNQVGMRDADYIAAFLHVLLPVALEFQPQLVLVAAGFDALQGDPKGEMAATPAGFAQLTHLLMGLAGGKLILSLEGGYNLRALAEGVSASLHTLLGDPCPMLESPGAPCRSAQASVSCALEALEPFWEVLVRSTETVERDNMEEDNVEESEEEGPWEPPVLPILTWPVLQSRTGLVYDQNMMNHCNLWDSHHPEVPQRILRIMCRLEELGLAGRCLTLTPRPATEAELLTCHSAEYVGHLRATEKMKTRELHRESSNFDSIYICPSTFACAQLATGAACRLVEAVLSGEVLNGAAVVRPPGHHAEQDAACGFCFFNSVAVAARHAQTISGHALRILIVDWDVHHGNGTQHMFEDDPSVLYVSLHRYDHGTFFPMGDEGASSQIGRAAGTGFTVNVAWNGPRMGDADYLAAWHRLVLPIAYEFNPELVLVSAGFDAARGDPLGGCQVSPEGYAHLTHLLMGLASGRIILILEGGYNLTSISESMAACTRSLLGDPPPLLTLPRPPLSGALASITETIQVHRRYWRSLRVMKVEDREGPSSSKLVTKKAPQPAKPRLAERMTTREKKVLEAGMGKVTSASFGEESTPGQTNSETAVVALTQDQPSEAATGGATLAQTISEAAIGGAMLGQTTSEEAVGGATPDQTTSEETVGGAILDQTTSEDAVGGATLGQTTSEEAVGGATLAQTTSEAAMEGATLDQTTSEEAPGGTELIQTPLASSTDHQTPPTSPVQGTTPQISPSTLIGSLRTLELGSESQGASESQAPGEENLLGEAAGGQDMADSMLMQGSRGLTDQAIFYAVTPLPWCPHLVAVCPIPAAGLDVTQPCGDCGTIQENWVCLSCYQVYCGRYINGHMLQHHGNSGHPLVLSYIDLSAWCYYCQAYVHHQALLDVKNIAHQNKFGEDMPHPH

[2] = test system: microtubules in A549 cells; assay: microtubule stability to nocodazole, cold or calcium depolymerization and repolymerization; format: cell-based, human; settings: tubacin 2 μM
Description: Detection of acetylated α-tubulin and acetylated histones by immunofluorescence was performed as described in Example 6 above. For determining microtubule stability, A549 cells were treated as indicated, fixed in glutaraldehyde, and stained for acetylated α-tubulin and total α-tubulin in antibody dilution buffer (ADB, Tris-buffered saline (TBS), 0.15 M NaCl, 0.02 M Tris-Cl, pH 7.4, with 2% bovine serum albumin and 0.1% Triton-X 100). For cold-depolymerization, cells were incubated at 4° C. or 37° C. for an additional 90 minutes before fixation. For calcium depolymerization, cells were incubated at 37° C. for 10 minutes in a microtubule-stabilizing buffer (0.2% NP-40, 5 mM MgCl2, 2 mM EGTA, 2 M glycerol, 100 mM PIPES, pH 6.8) with and without the addition of CaCl2 (2 mM) before glutaraldehyde fixation. For co-localization experiments, biotubacin (50 μM) treated A549 cells were fixed in 3.7% formaldehyde in TBS and processed as for detecting acetylated α-tubulin (See Example 6 above) with biotubacin detected using streptavidin-TR (1:500). HDAC6 was detected using a rabbit polyclonal antibody (1:250-1:750; C.M.G., unpublished data) under the conditions used to detect acetylated α-tubulin (See Example 6 above). Filamentous actin in HT-1080 cells was detected using TR-conjugated phalloidin (1 μg/mL), and depolymerized actin using FITC-conjugated deoxyribonuclease (10 μg/mL), following fixation in 3.7% formaldehyde in TBS. p58 (1:100) in NIH-3T3 cells was detected after fixation in 3.7% formaldehyde in TBS. Images for these experiments were collected on a Zeiss LSM510 confocal scanning laser microscope at the appropriate wavelengths using the accompanying software and processed with Adobe Photoshop. Deconvoluted serial images of TSA and DMSO treated A549 cells were obtained by taking sections (8μ) on a Zeiss Axioskop 2 microscope using an AxioCam camera and the accompanying software. Rat hippocampal neuronal cultures were fixed at room temperature for 15 min in phosphate-buffered saline (PBS) containing 4% paraformaldehyde. […]

[3] = test system: α-tubulin; assay: total and tyrosinated α-tubulin levels in cells; format: cell-based; settings: tubacin 2 μM, 4 h
Description: Detection of acetylated α-tubulin and acetylated histones by immunofluorescence was performed as described in Example 6 above. For determining microtubule stability, A549 cells were treated as indicated, fixed in glutaraldehyde, and stained for acetylated α-tubulin and total α-tubulin in antibody dilution buffer (ADB, Tris-buffered saline (TBS), 0.15 M NaCl, 0.02 M Tris-Cl, pH 7.4, with 2% bovine serum albumin and 0.1% Triton-X 100). For cold-depolymerization, cells were incubated at 4° C. or 37° C. for an additional 90 minutes before fixation. […] For co-localization experiments, biotubacin (50 μM) treated A549 cells were fixed in 3.7% formaldehyde in TBS and processed as for detecting acetylated α-tubulin (See Example 6 above) with biotubacin detected using streptavidin-TR (1:500). HDAC6 was detected using a rabbit polyclonal antibody (1:250-1:750; C.M.G., unpublished data) under the conditions used to detect acetylated α-tubulin (See Example 6 above). Filamentous actin in HT-1080 cells was detected using TR-conjugated phalloidin (1 μg/mL), and depolymerized actin using FITC-conjugated deoxyribonuclease (10 μg/mL), following fixation in 3.7% formaldehyde in TBS. p58 (1:100) in NIH-3T3 cells was detected after fixation in 3.7% formaldehyde in TBS. […]

selectivity for HDAC6 over HDAC1 and HDAC4 [1]: 3 fold
Compound: O=C(CCCCCCC(=O)Nc1ccc([C@@H]2OC(c3ccc(CO)cc3)C[C@H](CSc3nc(-c4ccccc4)c(-c4ccccc4)o3)O2)cc1)NO (some centres unmarked) [tubacin]
polymerization of microtubules after removal of nocodazole ([2]; ITSA1 50 μM): neither tubacin nor ITSA1 (50 μM; 30 minutes) prevents the repolymerization of microtubules; also recorded: neither tubacin nor ITSA1 prevented the polymerization of microtubules | stability of microtubules to depolymerization ([2]; nocodazole 332 nM, cold 4 °C 90 min, or 2 mM CaCl2): No effect of tubacin (2 μM) pre-treatment (4 h) on the stability of microtubules to nocodazole; also recorded: Microtubule depolymerization by nocodazole (332 nM; 5 h) is dominant to the effects of tubacin; also recorded: No effect of tubacin on the stability of microtubules to cold-depolymerization; also recorded: no stabilization of microtubules to any of the depolymerizing conditions tested | level of total α-tubulin [3]: No effect of tubacin (2 μM) treatment (4 h) on the levels of α-tubulin; also recorded: did not affect the level of total α-tubulin or the level of α-tubulin containing a carboxy-terminal tyrosine | level of tyrosinated α-tubulin [3]: No effect of tubacin (2 μM) treatment (4 h) on the levels of tyrosinated tubulin; also recorded: did not affect the level of total α-tubulin or the level of α-tubulin containing a carboxy-terminal tyrosine
